Key:
[1] = test system: mice (CD1 strain), intestinal loops with cholera toxin (CTX); details: mouse, in vivo
[2] = target: T1, CFTR (Homo sapiens, UniProt P13569); test: CHO-CFTR assay (FLIPR assay); assay type: cell-based; parameters: expressed in transfected cells; host or cells: CHO-K1 cells, stably transfected; details: same assay conditions (FLIPR assay); read-out: IC50 value in the CHO-CFTR cell line
Target sequence in this assay (P13569 whole entry, species assumed): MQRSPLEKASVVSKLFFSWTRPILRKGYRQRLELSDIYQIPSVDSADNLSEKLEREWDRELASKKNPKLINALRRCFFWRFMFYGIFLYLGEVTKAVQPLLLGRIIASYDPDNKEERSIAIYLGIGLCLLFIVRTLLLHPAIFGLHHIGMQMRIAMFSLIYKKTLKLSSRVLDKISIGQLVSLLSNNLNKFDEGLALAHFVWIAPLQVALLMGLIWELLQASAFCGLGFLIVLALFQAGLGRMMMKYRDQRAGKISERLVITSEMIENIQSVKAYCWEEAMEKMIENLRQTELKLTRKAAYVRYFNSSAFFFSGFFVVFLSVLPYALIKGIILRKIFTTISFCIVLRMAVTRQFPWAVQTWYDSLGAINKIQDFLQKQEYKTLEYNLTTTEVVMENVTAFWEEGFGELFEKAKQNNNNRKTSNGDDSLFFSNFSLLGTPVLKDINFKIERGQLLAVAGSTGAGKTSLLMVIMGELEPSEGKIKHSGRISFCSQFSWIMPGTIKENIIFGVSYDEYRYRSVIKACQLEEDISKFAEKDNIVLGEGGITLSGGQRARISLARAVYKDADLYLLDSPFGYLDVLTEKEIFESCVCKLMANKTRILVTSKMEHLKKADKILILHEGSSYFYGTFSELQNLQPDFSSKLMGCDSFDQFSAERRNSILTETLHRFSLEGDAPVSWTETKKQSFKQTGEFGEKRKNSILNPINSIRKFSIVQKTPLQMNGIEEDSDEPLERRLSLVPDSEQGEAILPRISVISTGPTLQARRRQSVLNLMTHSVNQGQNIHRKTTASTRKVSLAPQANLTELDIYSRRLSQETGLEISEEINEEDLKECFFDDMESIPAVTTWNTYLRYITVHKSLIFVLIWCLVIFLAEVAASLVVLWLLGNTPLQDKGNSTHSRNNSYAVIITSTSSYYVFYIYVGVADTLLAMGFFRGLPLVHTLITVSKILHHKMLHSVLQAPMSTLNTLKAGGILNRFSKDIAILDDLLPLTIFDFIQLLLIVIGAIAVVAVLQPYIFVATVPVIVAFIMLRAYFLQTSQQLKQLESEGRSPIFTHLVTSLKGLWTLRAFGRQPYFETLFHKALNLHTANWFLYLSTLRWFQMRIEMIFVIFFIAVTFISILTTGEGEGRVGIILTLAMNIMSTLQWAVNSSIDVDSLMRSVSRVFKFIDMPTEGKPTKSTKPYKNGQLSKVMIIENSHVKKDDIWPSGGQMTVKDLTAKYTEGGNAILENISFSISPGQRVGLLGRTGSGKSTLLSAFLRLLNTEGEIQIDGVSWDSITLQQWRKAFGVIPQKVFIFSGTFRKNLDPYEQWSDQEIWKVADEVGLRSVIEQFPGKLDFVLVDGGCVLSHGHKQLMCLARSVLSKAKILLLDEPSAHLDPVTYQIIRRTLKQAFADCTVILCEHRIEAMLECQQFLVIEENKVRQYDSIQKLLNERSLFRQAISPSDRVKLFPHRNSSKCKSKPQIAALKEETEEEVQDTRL

[3] = target: T1, CFTR; test: CHO-CFTR IonWorks Quattro (IWQ) population patch clamp; assay type: cell-based; parameters: expressed in transfected cells; host or cells: CHO-K1 cells, stably transfected; details: @-60 mV; room temperature
Procedure: Currents were recorded at room temperature (21-23° C.) using IonWorks® Quattro™ (Molecular Devices, Inc) Population Patch Clamp (PPC) mode automated electrophysiology recording techniques.
Before recording commenced, a T175 culture flask containing CHO-K^1 cells stably transfected with the CFTR gene were washed with 10 ml of Dulbecco's phosphate buffered saline (without Ca^2+ or Mg^2+) followed by addition of 1 ml of 0.05% Trypsin EDTA (Invitrogen, cat no. 25300054) to the flask. After 1-2 minutes incubation, flasks were gently tapped to lift the cells from the substrate and 10 ml of complete media added. Cells were spun at 1,000 rpm for 3 minutes, followed by re-suspension of the pellet in external buffer and use of the resulting cell suspension at a density of 2×10^6 cells per ml. The external solution used for recording was Dulbecco's phosphate buffered saline (Invitrogen, cat no. 14040091) and contained (in mM) 137.9 NaCl, 2.7 KCl, 0.901 CaCl2, 0.5 MgCl2.6H2O, 1.5 KH2PO4, 8.1 Na2HPO4.7H2O. The internal solution contained the following (in mM): 10 NaCl (Sigma, cat no. S7653), 90 KGluconate (Sigma, cat no. G4500), 30 KF (Sigma, cat no. 60238), 1 MgCl2 (Fluka, cat no. 63020), 5 EGTA (Sigma, cat no. E3889), 10 HEPES (Sigma, cat no. H3375); pH 7.4 with KOH. […]
Target sequence in this assay (P13569 whole entry, species assumed): as above

[4] = target: T1, CFTR; test: T84 assay (FLIPR membrane potential); assay type: cell-based; parameters: Human colonic T84 cells are acquired from the European Collection of Cell Cultures (ECACC); host or cells: T84 human colonic cells
Procedure: (§1) For example, Human colonic T84 cells can be acquired from the European Collection of Cell Cultures (ECACC) and grown in standard culture conditions as described by the supplier. On the day before assay 25,000 T84 cells per well are plated into standard black walled, clear bottom 384-well assay plates in standard growth medium consisting of DMEM:F12 with 10% FBS and incubated overnight. On the day of the assay the plates are washed using a standard assay buffer (HBSS with 10 mM Hepes) and incubated for 15 minutes in serum free cell culture medium before the addition of a commercially available membrane potential sensitive fluorescent dye (FLIPR Red membrane potential dye, Molecular Devices Corporation). T84 cells are incubated with the FLIPR Red membrane potential dye for 45 minutes in the presence and absence of test compound before being transferred to a commercially available fluorescence imaging plate reader (FLIPR384, Molecular Devices Corporation). Fluorescence levels are monitored continuously every second for 150 seconds; after an initial 10 second baseline, CFTR channel activity is stimulated through the addition of 10 μM forskolin in the presence of 100 μM of the phosphodiesterase inhibitor iso-butyl-methylxanthine (IBMX). Addition of the forskolin leads to the activation of intracellular adenylyl cylase 1, elevating cAMP levels and results in the phosphorylation and opening of CFTR anion channels. CFTR channel opening causes chloride ion efflux and subsequent depolarization of the cells, which is measured by an increase in fluorescence. CFTR inhibitor compounds prevent cell depolarization and the associated increase in fluorescence.
as §1, with “Human colonic” for “For example, Human colonic”, “T84 cells are acquired from” for “T84 cells can be acquired from”, “(ECACC) and are grown in” for “(ECACC) and grown in”, “with 10 Mm Hepes) and” for “with 10 mM Hepes) and”, “1, elevating Camp levels and” for “1, elevating cAMP levels and”
Target sequence in this assay (P13569 whole entry): as the sequence (P13569 whole entry, species assumed) above

Structure (SMILES) | IC50 [4] [µM] | other results
O=C(c1nnc(-c2cc(Cl)c(O)c(Cl)c2)o1)N1CCN(c2cccc(C(F)(F)F)c2)CC1 [Compound 4, (5-(3,5-dichloro-4-hydroxyphenyl)-1,3,4-oxadiazol-2-yl)(4-(3-(trifluoromethyl)phenyl)piperazin-1-yl)methanone] | 16.9 | closed loop % inhibition [1]: 92.5%; IC50 [2]: 10.6 µM; IC50 [3]: 4.71 µM
CN(Cc1ccc(Cl)c(Cl)c1)C(=O)c1nnc(-c2ccc(NS(=O)(=O)C(F)(F)F)cc2)o1 [Compound 17, N-(3,4-dichlorobenzyl)-N-methyl-5-(4-(trifluoromethylsulfonamido)phenyl)-1,3,4-oxadiazole-2-carboxamide] | 9.62 | –
O=C(c1nnc(-c2cccc(NS(=O)(=O)C(F)(F)F)c2)o1)N1CCC(Cc2ccccc2)CC1 [Compound 8, N-(3-(5-(4-benzylpiperidine-1-carbonyl)-1,3,4-oxadiazol-2-yl)phenyl)-1,1,1-trifluoromethanesulfonamide] | 13.3 | –
O=C(NCc1ccc(Oc2ccccc2)cc1)c1nnc(-c2cc(Cl)c(O)c(Cl)c2)o1 [Compound 2, 5-(3,5-Dichloro-4-hydroxyphenyl)-N-(4-phenoxybenzyl)-1,3,4-oxadiazole-2-carboxamide] | 3.95 | –
CC(C)(C)c1ccc(CNC(=O)c2nnc(-c3cc(Cl)c(O)c(Cl)c3)o2)cc1 [Compound 5, N-(4-tert-butylbenzyl)-5-(3,5-dichloro-4-hydroxyphenyl)-1,3,4-oxadiazole-2-carboxamide] | 7.38 | –
O=C(NCc1ccc(OCc2ccccc2)cc1)c1nnc(-c2cc(Cl)c(O)c(Cl)c2)o1 [Compound 18, N-(4-(benzyloxy)benzyl)-5-(3,5-dichloro-4-hydroxyphenyl)-1,3,4-oxadiazole-2-carboxamide] | 9.86 | –
CC(C)(C)c1ccc(CNC(=O)c2nnc(-c3ccc(NS(=O)(=O)C(F)(F)F)cc3)o2)cc1 [Compound 20, N-(4-tert-butylbenzyl)-5-(4-(trifluoromethylsulfonamido)phenyl)-1,3,4-oxadiazole-2-carboxamide] | 12.7 | –
O=C(NC(c1ccccc1)c1ccccc1)c1nnc(-c2cc(Cl)c(O)c(Cl)c2)o1 [Compound 6, N-benzhydryl-5-(3,5-dichloro-4-hydroxyphenyl)-1,3,4-oxadiazole-2-carboxamide] | 14.6 | –
O=C(NCc1ccc(Oc2ccccc2)cc1)c1nnc(-c2ccc(NS(=O)(=O)C(F)(F)F)cc2)o1 [Compound 23, N-(4-phenoxybenzyl)-5-(4-(trifluoromethylsulfonamido)phenyl)-1,3,4-oxadiazole-2-carboxamide] | 18.8 | –
O=C(NCc1cccc(-c2ccccc2)c1)c1nnc(-c2cc(Cl)c(O)c(Cl)c2)o1 [Compound 19, N-(biphenyl-3-ylmethyl)-5-(3,5-dichloro-4-hydroxyphenyl)-1,3,4-oxadiazole-2-carboxamide] | 9.89 | –
O=C(NCc1cccc(OCc2ccccc2)c1)c1nnc(-c2cc(Cl)c(O)c(Cl)c2)o1 [Compound 16, N-(3-(benzyloxy)benzyl)-5-(3,5-dichloro-4-hydroxyphenyl)-1,3,4-oxadiazole-2-carboxamide] | 7.53 | –
O=C(c1nnc(-c2cc(Cl)c(O)c(Cl)c2)o1)N1CCC(Cc2ccccc2)CC1 [Compound 3, (4-benzylpiperidin-1-yl)(5-(3,5-dichloro-4-hydroxyphenyl)-1,3,4-oxadiazol-2-yl)methanone] | 9.5 | –

Source: patent US20120136003A1, “COMPOUNDS, COMPOSITIONS AND METHODS COMPRISING 1,3,4-OXADIAZOLE DERIVATIVES” (Institute For Oneworld Health, priority 2009, published 2012)
